Laboratory results taken from ChEMBL document CHEMBL2034916, “Thiourea compound AW00178 sensitizes human H1299 lung carcinoma cells to TRAIL-mediated apoptosis” (2012).
Calls of active or inactive are those of the source. The rule behind the calls is not given here.

What was measured:
[1] = test system: NCI-H1299; test: Induction of DR5 expression in human H1299 cells at 0.1 to 30 uM after 24 hrs by Western blot analysis; format: functional, cell-based
[2] = test system: H1299; test: Inhibition of Akt in human H1299 cells assessed as decrease in survivin expression after 24 hrs by Western blot analysis; format: cell-based
[3] = Down regulation of cIAP2 expression in human H1299 cells at 0.1 to 30 uM after 24 hrs by Western blot analysis; format: functional, cell-based; conditions: NCI-H1299
[4] = Down regulation of cIAP2 expression in human H1299 cells at 0.1 to 30 uM after 24 hrs by Western blot analysis in presence of 100 ug/ml TRAIL and PI3K inhibitor LY294002; format: functional, cell-based; conditions: NCI-H1299
[5] = target: T1, c-Jun N-terminal kinase, JNK (Homo sapiens) (UniProt P45983+P53779+P45984); test: Induction of JNK-mediated CHOP expression in human H1299 cells at 0.1 to 30 uM after 24 hrs by Western blot analysis; format: cell-based
[6] = test system: H1299; test: Inhibition of Akt phosphorylation on human H1299 cells after 24 hrs by Western blot analysis; format: cell-based
[7] = Down regulation of XIAP expression in human H1299 cells at 0.1 to 30 uM after 24 hrs by Western blot analysis in presence of 100 ug/ml TRAIL and PI3K inhibitor LY294002; format: functional, cell-based; conditions: NCI-H1299
[8] = Down regulation of AKT-mediated survivin expression in human H1299 cells at 5 to 10 uM after 24 hrs by Western blot analysis in presence of 100 ug/ml TRAIL; format: cell-based
[9] = test system: NCI-H1299; test: Induction of apoptosis in human H1299 cells assessed as apoptotic cells at 5 uM after 48 hrs by annexinV/propidium iodide staining-based flow cytometric analysis in presence of 100 ug/ml TRAIL (reference value: 1.35%); format: functional
[10] = test system: NCI-H1299; test: Induction of TRAIL-mediated apoptosis in human H1299 cells assessed as caspase 8 activation at 5 to 10 uM after 24 hrs by fluorometric assay in presence of pan-caspase inhibitor Z-VAD-FMK; format: functional, cell-based
[11] = test system: H1299; test: Inhibition of Akt phosphorylation in human H1299 cells at 5 to 10 uM after 24 hrs by Western blot analysis; format: cell-based
[12] = target: T1, c-Jun N-terminal kinase, JNK (Homo sapiens); test: Induction of JNK-mediated c-Jun phosphorylation in human H1299 cells at 10 uM for 30 mins cotreated with TRAIL by Western blot analysis pretreated with 10 uM JNK inhibitor SP600125 for 1 hr; format: cell-based
[13] = Down regulation of cIAP2 expression in human H1299 cells at 10 uM after 24 hrs by Western blot analysis in presence of 100 ug/ml TRAIL; format: functional, cell-based; conditions: NCI-H1299
[14] = Down regulation of AKT-mediated survivin expression in human H1299 cells at 5 to 10 uM after 24 hrs by Western blot analysis; format: cell-based
[15] = target: T1, c-Jun N-terminal kinase, JNK (Homo sapiens); test: Induction of JNK-mediated c-Jun phosphorylation in human H1299 cells at 5 to 10 uM after 24 hrs by Western blot analysis in presence of 100 ug/ml TRAIL; format: cell-based
[16] = Down regulation of XIAP expression in human H1299 cells at 5 to 10 uM after 24 hrs by Western blot analysis; format: functional, cell-based; conditions: NCI-H1299
[17] = target: T1, c-Jun N-terminal kinase, JNK (Homo sapiens); test: Induction of JNK-mediated c-Jun phosphorylation in human H1299 cells at 5 to 10 uM after 24 hrs by Western blot analysis; format: cell-based
[18] = Down regulation of XIAP expression in human H1299 cells at 0.1 to 30 uM after 24 hrs by Western blot analysis; format: functional, cell-based; conditions: NCI-H1299
[19] = Down regulation of XIAP expression in human H1299 cells at 5 to 10 uM after 24 hrs by Western blot analysis in presence of 100 ug/ml TRAIL; format: functional, cell-based; conditions: NCI-H1299
[20] = Upregulation of CHOP in human H1299 cells at 10 uM after 24 hrs by Western blot analysis in presence of 100 ug/ml TRAIL and pretreated with 10 uM JNK inhibition SP600125; format: functional, cell-based; conditions: NCI-H1299
[21] = target: T1, c-Jun N-terminal kinase, JNK (Homo sapiens); test: Induction of JNK-mediated CHOP protein expression in human H1299 cells after 24 hrs by Western blot analysis; format: cell-based
[22] = test system: NCI-H1299; test: Induction of apoptosis in human H1299 cells assessed as apoptotic cells at 10 uM after 48 hrs by annexinV/propidium iodide staining-based flow cytometric analysis in presence of 100 ug/ml TRAIL (reference value: 1.35%); format: functional
[23] = test system: NCI-H1299; test: Induction of apoptosis in human H1299 cells assessed as apoptotic cells at 10 uM after 48 hrs by annexinV/propidium iodide staining-based flow cytometric analysis (reference value: 1.35%); format: functional
[24] = test system: NCI-H1299; test: Induction of apoptosis in human H1299 cells assessed as apoptotic cells at 5 uM after 48 hrs by annexinV/propidium iodide staining-based flow cytometric analysis (reference value: 1.35%); format: functional
[25] = test system: H1299; test: Inhibition of Akt phosphorylation in human H1299 cells at 5 to 10 uM after 24 hrs by Western blot analysis in presence of 100 ug/ml TRAIL; format: cell-based
[26] = Down regulation of cIAP1 expression in human H1299 cells at 10 uM after 24 hrs by Western blot analysis in presence of 100 ug/ml TRAIL; format: functional, cell-based; conditions: NCI-H1299
[27] = test system: NCI-H1299; test: Induction of TRAIL-mediated apoptosis in human H1299 cells assessed as caspase 8 activation at 5 to 10 uM after 24 hrs by fluorometric assay; format: functional, cell-based
[28] = test system: NCI-H1299; test: Induction of DR5 protein expression in human H1299 cells after 24 hrs by Western blot analysis; format: functional, cell-based
[29] = Down regulation of Bcl-Xl expression in human H1299 cells at 10 uM after 24 hrs by Western blot analysis in presence of 100 ug/ml TRAIL; format: functional, cell-based; conditions: NCI-H1299

O=c1cc(N2CCOCC2)oc2c(-c3ccccc3)cccc12
Activity [1]: inactive | inhibition [2]: Dose-dependent effect | Activity [3]: Active | Activity [4]: Active | Activity [5]: inactive | inhibition [6]: Dose-dependent effect

Cc1ccc(Cl)cc1NC(=S)Nc1ccc(-n2nccc2C(F)(F)F)cc1
Activity [7]: Active | Activity [8]: Active | Activity [9]: 6.59% | Activity [10]: inactive | inhibition [11]: Active | Activity [12]: Active | Activity [13]: Active | Activity [14]: Active | Activity [15]: Active | Activity [16]: Active | Activity [17]: Active | Activity [18]: Active | Activity [19]: Active | Activity [20]: inactive | Activity [21]: Active | Activity [22]: 39.4% | Activity [23]: 3.25% | Activity [24]: 1.52% | inhibition [25]: Active | Activity [26]: Active | Activity [27]: Active | Activity [28]: Active | Activity [29]: Active
